The assay has as its target T1, human V1a receptor (Homo sapiens, UniProt P37288).
T1 construct: host or cells: CHO cells (hV1a cell line)
Briefly: Human vasopressin V1a receptor binding assay (3H-AVP competition, hV1a CHO cells). To be noted: 3H-AVP competition, CHO cells expressing human V1a; for Ki: read-out: V1a Ki; for IC50: read-out: V1a Binding Affinity IC50. On the procedure: Human vasopression V1a receptor binding assay. A cell line expressing the human V1a receptor in CHO cells (henceforth referred to as the hV1a cell line) was obtained from Dr. Michael Brownstein, NIMH, Bethesda, Md., USA. The hV1a cDNA sequence is described by Thibonnier et al., Journal of Biological Chemistry, 269, 3304-3310 (1994), and the expression method was the same as described by Morel et al. (1992). The hV1a cell line was grown in alpha-MEM with 10% fetal bovine serum and 250 ug/ml G418 (Gibco, Grand Island, N.Y., USA). For competitive binding assay, hV1a cells were plated into 6-well culture plate at 1:10 dilution from a confluency flask, and maintained in culture for at least two days. Culture medium was then removed, cells were washed with 2 ml binding buffer (25 mM Hepes, 0.25% BSA, 1×DMEM, PH=7.0). To each well, 990 μl binding buffer containing InM 3H-AVP was added, and followed by 10 μl series diluted Example compounds dissolved in DMSO. […] 100 nM cold AVP (Sigma) was used to assess non-specific binding. Cells were incubated for 45 minutes at 37° C., assay mixture was removed and each well was washed three times with PBS (pH=7.4). 1 ml 2% SDS was added per well and plates were let sit for 30 minutes. The whole content in a well was transferred to a scintillation vial. Each well was rinsed with 0.5 ml PBS which was then added to the corresponding vial. Scintillation fluid (Ecoscint, National Diagnostics, Atlanta, Ga.) was then added at 3 ml per vial. Samples were counted in a liquid scintillation counter (Beckman LS3801). IC50 values were calculated by Prism Curve fitting software.
All of the alkanedioic esters and amides exemplified in the foregoing examples dissolved in DMSO were tested in this assay. Binding curves were generated according to methods described by Thibonnier et al. (1994). [^3H]-AVP was added to the hV1a cell cultures followed by 10-fold dilutions of each test compound.

The values that follow come from US11319306B2, “Compositions and methods for treating neurodegenerative diseases” (Azevan Pharmaceuticals, Inc., priority 2014, dated 2022).

T1 sequence (P37288 whole entry): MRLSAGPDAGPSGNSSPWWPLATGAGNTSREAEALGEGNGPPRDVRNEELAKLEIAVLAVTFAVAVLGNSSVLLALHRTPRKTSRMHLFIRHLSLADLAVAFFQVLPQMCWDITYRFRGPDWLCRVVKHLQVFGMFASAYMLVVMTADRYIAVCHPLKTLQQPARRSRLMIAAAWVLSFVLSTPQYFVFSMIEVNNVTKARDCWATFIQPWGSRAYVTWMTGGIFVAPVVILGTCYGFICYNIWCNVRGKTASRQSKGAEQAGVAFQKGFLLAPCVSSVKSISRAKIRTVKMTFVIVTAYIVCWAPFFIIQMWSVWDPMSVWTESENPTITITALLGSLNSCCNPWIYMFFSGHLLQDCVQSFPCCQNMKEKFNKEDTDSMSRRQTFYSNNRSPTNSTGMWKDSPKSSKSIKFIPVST

For the compound `O=C(NCc1cccc(C(F)(F)F)c1)C(C(=O)N1CCN(CCc2ccccc2)CC1)N1C(=O)[C@@H](N2C(=O)OC[C@@H]2c2ccccc2)[C@H]1/C=C/c1ccccc1` (mixture of isomers) [Example 38], the Ki (in general, a dissociation constant, usually derived from enzyme kinetics or from competition with a known ligand) came to 85 nM. On to `CC(C)N1CCN(C(=O)C(C(=O)NCc2cccc(C(F)(F)F)c2)N2C(=O)[C@@H](N3C(=O)OC[C@@H]3c3ccccc3)[C@H]2/C=C/c2ccccc2)CC1` (mixture of isomers) [Example 41], for which the Ki worked out at 18.2 nM. For the compound `O=C(NCc1cccc(C(F)(F)F)c1)C(C(=O)N1CCN(C2CCCCC2)CC1)N1C(=O)[C@@H](N2C(=O)OC[C@@H]2c2ccccc2)[C@H]1/C=C/c1ccccc1` (mixture of isomers) [Example 42], the Ki came out at 26.4 nM.

Consider `O=C(NC(c1ccccc1)C(F)(F)F)C(CC(=O)N1CCC(N2CCCCC2)CC1)N1C(=O)C(N2C(=O)OCC2c2ccccc2)C1C=Cc1ccccc1` (single isomer, unassigned) [Example 623], for which the Ki was 0.85 nM.

With `O=C(NC(c1ccccc1)C(F)(F)F)C(CC(=O)N1CCC(N2CCCCC2)CC1)N1C(=O)C(N2C(=O)OCC2c2ccccc2)C1C=Cc1ccccc1` (single isomer, unassigned) [Example 626], the Ki was determined as 0.27 nM.

For the compound `CC(C)(C)OC(=O)C(C(=O)NCc1cccc(C(F)(F)F)c1)N1C(=O)C(N2C(=O)OCC2c2ccccc2)C1C=Cc1ccccc1` [Example 18, 2(RS)-(tert-Butoxycarbonyl)-2-[3(S)-(4(S)-phenyloxazolidin-2-on-3-yl)-4(R)-(2-styryl)azetidin-2-on-1-yl]acetic acid N-(3-trifluoromethylbenzyl)amide], the IC50 (usually the concentration that inhibits the measured activity by half) stood at 35 nM.

For `CC(C)(C)OC(=O)CC(C(=O)NCc1cccc(C(F)(F)F)c1)N1C(=O)C(N2C(=O)OCC2c2ccccc2)C1C=Cc1ccccc1` [Example 19, 2(S)-(tert-Butoxycarbonylmethyl)-2-[3(S)-(4(S)-phenyloxazolidin-2-on-3-yl)-4(R)-(2-styryl)azetidin-2-on-1-yl]acetic acid N-(3-trifluoromethylbenzyl)amide], the IC50 amounted to 35 nM. Same read-out and setting: the same measure for `CC(C)(C)OC(=O)CCC(C(=O)NCc1cccc(C(F)(F)F)c1)N1C(=O)C(N2C(=O)OCC2c2ccccc2)C1C=Cc1ccccc1` [Example 20, 2(S)-(tert-Butoxycarbonylethyl)-2-[3(S)-(4(S)-phenyloxazolidin-2-on-3-yl)-4(R)-(2-styryl)azetidin-2-on-1-yl]acetic acid N-(3-trifluoromethylbenzyl)amide]: 35 nM. As to `O=C(NCc1cccc(C(F)(F)F)c1)C(C(=O)N1CCC(N2CCCCC2)CC1)N1C(=O)C(N2C(=O)OCC2c2ccccc2)C1C=Cc1ccccc1` (stereo not shown) [Example 37], the IC50 worked out at 5.5 nM and the Ki is 3.39 nM. `O=C(NCc1cccc(C(F)(F)F)c1)C(C(=O)NC1CCN(Cc2ccccc2)CC1)N1C(=O)C(N2C(=O)OCC2c2ccccc2)C1C=Cc1ccccc1` (stereo not shown) [Example 39]: the half-maximal inhibitory concentration (IC50) is 23 nM and the Ki was 13.3 nM. The matching figures for `CCCCN1CCN(C(=O)C(C(=O)NCc2cccc(C(F)(F)F)c2)N2C(=O)C(N3C(=O)OCC3c3ccccc3)C2C=Cc2ccccc2)CC1` (stereo not shown) [Example 40]: 11 nM and 6.5 nM. Consider `O=C(NCc1cccc(C(F)(F)F)c1)C(C(=O)N1CCC(CCN2CCCCC2)CC1)N1C(=O)C(N2C(=O)OCC2c2ccccc2)C1C=Cc1ccccc1` (stereo not shown) [Example 42A], for which the IC50 was 1.77 nM and the Ki was determined as 1.17 nM.

In the case of `O=C(CC(C(=O)NCc1cccc(C(F)(F)F)c1)N1C(=O)C(N2C(=O)OCC2c2ccccc2)C1C=Cc1ccccc1)NC1CCN(Cc2ccccc2)CC1` (stereo not shown) [Example 63], the IC50 came to 1.84 nM and the Ki came out at 1.13 nM. Regarding `O=C(NCc1cccc(C(F)(F)F)c1)[C@H](CC(=O)N1CCCN(Cc2ccccc2)CC1)N1C(=O)[C@@H](N2C(=O)OC[C@@H]2c2ccccc2)[C@H]1/C=C/c1ccccc1` [Example 82], the Ki came to 5.12 nM. For `O=C(CC(C(=O)NCc1cccc(C(F)(F)F)c1)N1C(=O)C(N2C(=O)OCC2c2ccccc2)C1C=Cc1ccccc1)NC1CCN(Cc2ccccc2)C1` (stereo not shown) [Example 85], the IC50 worked out at 5.87 nM and the Ki came to 3.6 nM.

Turning to `O=C(NCc1cccc(C(F)(F)F)c1)C(CC(=O)N1CCC(CCN2CCCCC2)CC1)N1C(=O)C(N2C(=O)OCC2c2ccccc2)C1C=Cc1ccccc1` (stereo not shown) [Example 86A], the IC50 is 9.79 nM and the Ki was determined as 6 nM. Regarding `O=C(CC[C@@H](C(=O)NCc1cccc(C(F)(F)F)c1)N1C(=O)[C@@H](N2C(=O)OC[C@@H]2c2ccccc2)[C@H]1/C=C/c1ccccc1)NCCN1CCCCC1` [Example 87], the IC50 stood at 15 nM. Turning to `O=C(NCc1cccc(C(F)(F)F)c1)[C@H](CCC(=O)N1CCN(N2CCCC2)CC1)N1C(=O)[C@@H](N2C(=O)OC[C@@H]2c2ccccc2)[C@H]1/C=C/c1ccccc1` [Example 91], the 50% inhibitory concentration (IC50) was 3.24 nM and the Ki was 1.99 nM. `O=C(NCc1cccc(C(F)(F)F)c1)C(CCC(=O)N1CCN(Cc2ccccc2)CC1)N1C(=O)C(N2C(=O)OCC2c2ccccc2)C1C=Cc1ccccc1` (stereo not shown) [Example 95]: the IC50 was 1.76 nM and the Ki is 1.08 nM. Regarding `O=C(NCc1cccc(C(F)(F)F)c1)C(CCC(=O)N1CCN(Cc2ccc3c(c2)OCO3)CC1)N1C(=O)C(N2C(=O)OCC2c2ccccc2)C1C=Cc1ccccc1` (stereo not shown) [Example 96], the IC50 came to 4.35 nM and the Ki came to 2.66 nM.

As to `O=C(NCc1cccc(C(F)(F)F)c1)C(CCC(=O)N1CCN(CCC2CCCCC2)CC1)N1C(=O)C(N2C(=O)OCC2c2ccccc2)C1C=Cc1ccccc1` (stereo not shown) [Example 111], the IC50 was 1.31 nM and the Ki was 0.82 nM. For `O=C(NCc1cccc(C(F)(F)F)c1)C(CCC(=O)N1CCN(CCN2CCOCC2)CC1)N1C(=O)C(N2C(=O)OCC2c2ccccc2)C1C=Cc1ccccc1` (stereo not shown) [Example 112] the same measures were 1.34 nM and 0.8 nM. For `O=C(NCc1cccc(C(F)(F)F)c1)C(CCC(=O)N1CCC(CCN2CCCCC2)CC1)N1C(=O)C(N2C(=O)OCC2c2ccccc2)C1C=Cc1ccccc1` (stereo not shown) [Example 120A] the same measures were 16.2 nM and 9.9 nM.

With `CCCN1CCN(C(=O)CCC(C(=O)NCc2cccc(C(F)(F)F)c2)N2C(=O)C(N3C(=O)OCC3c3ccccc3)C2C=Cc2ccccc2)CC1` (stereo not shown) [Example 120B], the IC50 turned out to be 2.93 nM and the Ki is 1.79 nM. The matching figures for `O=C(NCc1cccc(C(F)(F)F)c1)C(CCC(=O)N1CCN(CC2CCCCC2)CC1)N1C(=O)C(N2C(=O)OCC2c2ccccc2)C1C=Cc1ccccc1` (stereo not shown) [Example 120]: 0.75 nM and 0.46 nM. For `O=C(NC1(c2ccccc2)CCCC1)C(CC(=O)N1CCC(N2CCCCC2)CC1)N1C(=O)C(N2C(=O)OCC2c2ccccc2)C1C=Cc1ccccc1` (stereo not shown) [Example 132D], the IC50 was 6.3 nM and the Ki amounted to 3.9 nM. With `O=C(NCc1cccc(C(F)(F)F)c1)C(CC(=O)N1CCC(CCN2CCCCC2)CC1)N1C(=O)C(N2C(=O)OCC2c2ccccc2)C1C=Cc1ccccc1` (stereo not shown) [Example 134A], the IC50 is 12.9 nM and the Ki stood at 7.9 nM. The matching figures for `O=C(NCc1cccc(C(F)(F)F)c1)[C@@H](CC(=O)N1CCN(N2CCCC2)CC1)N1C(=O)[C@@H](N2C(=O)OC[C@@H]2c2ccccc2)[C@H]1/C=C/c1ccccc1` [Example 134B]: 44.8 nM and 27.5 nM.

With `O=C(CC(C(=O)NCc1cccc(C(F)(F)F)c1)N1C(=O)C(N2C(=O)OCC2c2ccccc2)C1C=Cc1ccccc1)NC1CCN(Cc2ccccc2)CC1` (stereo not shown) [Example 134C], the IC50 is 9.1 nM and the Ki turned out to be 5.58 nM. The matching figures for `O=C(NCc1cccc(C(F)(F)F)c1)C(CC(=O)N1CCC(CN2CCCCC2)CC1)N1C(=O)C(N2C(=O)OCC2c2ccccc2)C1C=Cc1ccccc1` (stereo not shown) [Example 134G]: 6 nM and 3.7 nM. For `CC(C)(NC(=O)C(CC(=O)N1CCC(N2CCCCC2)CC1)N1C(=O)C(N2C(=O)OCC2c2ccccc2)C1C=Cc1ccccc1)c1ccccc1` (stereo not shown) [Example 134J] the same measures were 5.29 nM and 3.25 nM. The matching figures for `O=C(NCc1cccc(C(F)(F)F)c1)C(CCC(=O)N1CCN(CCc2ccccc2)CC1)N1C(=O)C(N2C(=O)OCC2c2ccccc2)C1C=Cc1ccccc1` (stereo not shown) [Example 136]: 11 nM and 33 nM. Regarding `CCCCN1CCN(C(=O)CCC(C(=O)NCc2cccc(C(F)(F)F)c2)N2C(=O)C(N3C(=O)OCC3c3ccccc3)C2C=Cc2ccccc2)CC1` (stereo not shown) [Example 137], the IC50 came out at 17 nM and the Ki is 10.5 nM.

As for `CC(C)N1CCN(C(=O)CCC(C(=O)NCc2cccc(C(F)(F)F)c2)N2C(=O)C(N3C(=O)OCC3c3ccccc3)C2C=Cc2ccccc2)CC1` (stereo not shown) [Example 138], the IC50 worked out at 21 nM and the Ki turned out to be 13 nM.
